# Data as given in patent publication US9259452B2, “Deacetylase inhibitor therapy” (Celgene Corporation, priority 2006, dated 2016).
# Where “and” joins values, the source holds several entries; their conditions need not be identical. Identical values can stand only once. Marks after values point to notes of the source that are not given here.
# Assays:
# [1] = ECG evaluation of T-wave (grade 1) and ST segment (grade 2) abnormalities, phase II trial of romidepsin in T-cell lymphoma patients; type: in vivo, human; settings: for ECGs Grade 0 / ECGs Grade 1: first dose of the first cycle (n = 42)
# Excerpt: The protocol (NCI 01-C-0049 or 1312) and informed consent were approved by the Institutional Review Board of the National Cancer Institute. All data used in this analysis were obtained from patients who signed an informed consent and were enrolled and treated at the NIH Warren Grant Magnuson Clinical Center. Toxicities were reported using the National Cancer Institute Common Toxicity Criteria, CTC version 2.0. The Inclusion Criteria required measurable disease, an age of 18 years or older, an ECOG performance status of 0, 1 or 2, and a life expectancy of >12 wk. Required laboratory values included AGC≧1000/μL, platelets≧100,000/μL, bilirubin <1.5× the institutional upper limit of normal (ULN), AST <3×ULN, and creatinine <1.5×ULN. Patients with a myocardial infarction within the previous 6 months, a left ventricular ejection fraction (LVEF) below normal (<45% if performed by MUGA, or <50% if performed by echocardiogram or cardiac MRI), a corrected QT interval of >500 ms, unstable angina, or third degree heart block (unless with pacemaker) were not eligible to enroll.
# Subsequently, the protocol was amended and all patients were treated on days 1, 8 and 15 of a 28 day cycle, with a starting dose of 14 mg/m^2. This change was made for improved patient tolerability. […] Provisions for dose reduction were made in the case of grade 3 or 4 toxicity. Alternatively, a dose increase was allowed for patients who had no serious toxicities.
# [2] = QTc analysis (heart rate-corrected QT interval) on ECGs, phase II trial; settings: for Least Square mean QT interval: all doses of first 6 cycles
# [3] = Serum cardiac troponin I and CPK levels prior to and on the day after each dose
# Procedure: An additional ECG was obtained on day 3 of the first cycle. ECGs were obtained using an HP Pagewriter XLi or a GE Marquette MAC1200 and recorded at 25 mm/sec, with an amplitude of 10 mm/mV and with 60 Hz filtering. They were analyzed using Pagewriter A.04.01 ECG analysis software (Philips Medical Systems). The QT interval measurement in this program is made by averaging the five longest QT intervals with a T or T′ wave amplitude greater than 0.15 mV. […] Grade 1 toxicity was defined as nonspecific T-wave abnormalities, (flattening or inversion without ST segment abnormalities) and Grade 2 as ST segment depression of at least 1 mm in at least 2 leads. If both were observed, then the ECG was assigned a grade 2 toxicity. […] The QTc analysis was performed on ECGs obtained during the first six cycles from patients treated on the day 1, 8 and 15 schedule (37 patients). ECGs from patients with an intraventricular conduction delay, defined as QRS duration greater than 100 ms, were excluded from the QTc analysis since in that setting the QTc interval includes a variable depolarization interval that leads to a prolonged QTc value (22).
# [4] = Bazett's formula, 2051 ECGs, 42 patients
# [5] = first 6 cycles, all 42 patients
# [6] = re-calculated using Friderica's formula
# [7] = obtained in parallel with elevated cTnI samples, individual cases
structure (smiles),measurement,setting,value
"C/C=C1\NC(=O)[C@H]2CSSCC/C=C/[C@H](CC(=O)N[C@H](C(C)C)C(=O)N2)OC(=O)[C@H](C(C)C)NC1=O [romidepsin, (1S,4S,10S,16E,21R)-7-[(2Z)-ethylidene]-4,21-diisopropyl-2-oxa-12,13-dithia-5,8,20,23-tetraazabicyclo[8.7.6]tricos-16-ene-3,6,9,19,22-pentanone]",ECGs Grade 0,[1]; Post infusion,82%
same,ECGs Grade 1,[1]; Post infusion,18%
same,ECGs Grade 0,[1]; Pre (baseline),95%
same,ECGs Grade 1,[1]; Pre (baseline),5%
same,"ST segment depression, grade 2","[1]; first dose of the first cycle, day 3",not observed
same,Grade 2 ECGs meeting criteria consistent with ischemia (1 mm ST segment depression 80 msec after end of QRS),"[1]; of 69 ECGs scored grade 2, cardiologist review",45%
same,Patients returning for the second cycle with no evidence of T-wave or ST-segment abnormalities,[1]; of the 34 patients returning for cycle 2,Twenty-eight
same,"Maximal increase of QTc, median","[2]; 31 patients, first six cycles",11.3%
same,Maximum increase in QTc,"[2]; 31 patients, first six cycles",78.25 ms
same,Doses associated with a 30 to 60 ms prolongation of QTc,"[2]; 349 doses, 31 patients",25%
same,Doses associated with a greater than 60 ms prolongation of QTc,"[2]; 349 doses, 31 patients",2.6%
same,Median change of QTc from baseline,[2]; 670 ECGs obtained immediately post-treatment or on the day following treatment,13.42 ms
same,Share of ECGs with QTc over 450 ms that were obtained immediately post treatment or on the day following treatment,[2]; Bazett's formula,Eighty-nine
same,Number of patients with QTc greater than 450 ms,"[2]; Bazett's formula, 42 patients",28
same,Number of patients with QTc greater than 480 ms,"[2]; Bazett's formula, 42 patients",10
same,Number of patients with QTc greater than 500 ms,"[2]; Bazett's formula, 42 patients",4
same,Number of ECGs with QTc greater than 450 ms,[2]; [4],163
same,Number of ECGs with QTc greater than 480 ms,[2]; [4],20
same,Number of ECGs with QTc greater than 500 ms,[2]; [4],5
same,Share of ECGs with QTc greater than 450 ms,[2]; [4],8.0%
same,Share of ECGs with QTc greater than 480 ms,[2]; [4],1%
same,Share of ECGs with QTc greater than 500 ms,[2]; [4],0.2%
same,"QTc Interval Difference [D2]-[4 hr], Median",[2]; C1,0.0 ms
same,"QTc Interval Difference [D3]-[Baseline], Median",[2]; C1,-2.5 ms
same,"QTc Interval Difference [D3]-[D2], Median",[2]; C1,-20.0 ms
same,"QTc Interval Difference [D2]-[Baseline], Median",[2]; C1 (cycle 1),10.8 ms
same,"QTc Interval Difference [4 hr]-[Baseline], Median","[2]; C1 (cycle 1), first dose, day 1, 8, 15 schedule",16.5 ms
same,"QTc Interval Difference [4 hr]-[Baseline], Median",[2]; C2,8.0 ms
same,"QTc Interval Difference [D2]-[Baseline], Median",[2]; C2,13.2 ms
same,"QTc Interval Difference [4 hr]-[Baseline], Median",[2]; C3,15.5 ms
same,"QTc Interval Difference [D2]-[Baseline], Median",[2]; C3,5.3 ms
same,"QTc Interval Difference [4 hr]-[Baseline], Median",[2]; C4,15.9 ms
same,"QTc Interval Difference [D2]-[Baseline], Median",[2]; C4,15.5 ms
same,"QTc Interval Difference [4 hr]-[Baseline], Median",[2]; C5,18.2 ms
same,"QTc Interval Difference [D2]-[Baseline], Median",[2]; C5,14.8 ms
same,"QTc Interval Difference [4 hr]-[Baseline], Median",[2]; C6,18.8 ms
same,"QTc Interval Difference [D2]-[Baseline], Median",[2]; C6,17.8 ms
same,Least Square mean QT interval,"[2]; Post dose, 31 patients, p < 0.0001 vs pre-dose",424.1*
same,Least Square mean QT interval,"[2]; Pre-dose, 31 patients",409.7
same,Maximum increase in QTc over that patient's mean baseline QTc,[2]; baseline QTc of 415.75,19%
same,Least Square mean QT interval,"[2]; day 1 (pre-treatment), 31 patients, repeated measures ANOVA",410.3
same,Least Square mean QT interval,"[2]; day 2 (day after treatment), 31 patients",422.7
same,Least Square mean QT interval,"[2]; day 8 (pre-treatment), 31 patients",410.8
same,Least Square mean QT interval,"[2]; day 9 (day after treatment), 31 patients",426.0
same,Least Square mean QT interval,"[2]; day 15 (pre-treatment), 31 patients",408.0
same,Least Square mean QT interval,"[2]; day 16 (day after treatment), 31 patients",423.7
same,Doses associated with a 30 to 60 ms prolongation of QTc,[2]; [5],24%
same,Doses associated with a greater than 60 ms prolongation of QTc,[2]; [5],3.2%
same,Time after treatment by which QTc changes had reverted to baseline,[2]; first cycle,≤ 48 h
same,Number of ECGs demonstrating an increased QTc from baseline,"[2]; of 670 ECGs obtained immediately post-treatment or on the day following treatment, 31 patients",514
same,Number of ECGs with QTc greater than 450 ms,[2]; [6],27
same,Number of ECGs with QTc greater than 480 ms,[2]; [6],3
same,Number of patients with QTc greater than 450 ms,[2]; [6],15
same,Number of patients with QTc greater than 480 ms,[2]; [6],3
same,QTc greater than 500 ms,[2]; [6],no QTc was greater than 500 ms
same,Share of ECGs with QTc greater than 450 ms,[2]; [6],1.3%
same,Share of ECGs with QTc greater than 480 ms,[2]; [6],0.1%
same,Number of cTnI samples found to be elevated,"[3]; from 8 patients, 601 pre-treatment and 590 day-after samples",10
same,CPK Post-treatment,[3]; [7],20 and 28 (2×) and 18 and 16 and 85 and 157 and 144 and 162
same,CPK Pre-treatment,[3]; [7],29 and 43 and 27 and 47 and 70 and 200 and 179 and 28 and 39 and 160
same,CPK samples obtained in parallel with the 10 elevated cTnI samples,"[3]; range, unchanged from pre-treatment",16-200
same,Troponin Post-treatment,"[3]; serum cTnI, day following treatment, individual cases",2.1-3.3 ng/ml and ≦0.2 ng/ml and 3.3 ng/ml and 2.1 ng/ml and 2.6 ng/ml and 8.3 ng/ml and 2.3 ng/ml and 15.8 ng/ml and 3.6 ng/ml
same,Troponin Repeat (of elevated pre-treatment sample),"[3]; serum cTnI, individual cases",≤ 0.2 ng/ml and ≦0.2 ng/ml
same,Troponin Pre-treatment,"[3]; serum cTnI, individual cases with an elevated sample among 1191 samples",3.4-11.3 ng/ml and 11.3 ng/ml and ≦0.2 ng/ml and 3.4 ng/ml and 6.4 ng/ml
same,Troponin Repeat (of elevated post-treatment sample),"[3]; serum cTnI, repeated the same day, individual cases",≤ 0.2 ng/ml and ≦0.2 ng/ml
